Assay results reported in patent US8835466B2, “Synthesis and uses of pyroglutamic acid derivatives” (Prodimed, S.A., priority 2006, dated 2014).

System: KLN 205 cells (lung cell carcinoma)
Experiment: Effect of 9d in combination with Cisplatin on tumour growth, KLN 205 (Example 11)
Assay type: in vivo, DBA/2 mice
Details: for Tumour surface, overall values (Mean) / Tumour surface, overall values (Median) / Tumour volume, overall values (Mean) / Tumour volume, overall values (Median): Cisplatin 65 μg i.p. days 3, 6, 10, 13, 17, 20
Protocol: This was carried out by measuring two perpendicular diameters (d1/d2) with a calliper. These measures were used to obtain both tumour surface and volume: […] Results were expressed as single values and/or as the mean±SD or median from each experimental group. This assay was made in order to check the effect on in vivo tumour growth in mice challenged with KLN 205 cells. Their effect was compared with the combination of Cisplatin plus 9d and/or placebo. KLN 205 is a lung cell carcinoma originated in DBA/2 mouse strain, and therefore syngeneic in mice with DBA/2 genetic background (Kaneko T and […]. Growth characteristics and drug responses of a murine lung carcinoma in vitro and in vivo. Cancer Res. 38: 2084-2090; 1978). KLN 205 cells (CLS, Eppelheim, Germany) were maintained in vitro by serial passages every 3-4 days. […] Louis, Mo., USA) by seeding 5×10^6 cells onto 75 cm^2 culture flasks. Subcultures were carried out by collecting detached cells after treatment with trypsin-EDTA (Sigma, St. Louis, Mo., USA). Tumour cells, collected from 48 hour cultures, were used as source of KLN 205 cells for the studies described below. […] Tumours were established by subcutaneous inoculation in the right hind flank. Mice (DBA/2) were inoculated with 0.2 mL containing 2×10^5 viable KLN 205 cells. The day of subcutaneous inoculation will be considered Day 0 of the test. A case-control study was performed with treated and control mice in order to determine whether differences between placebo, 9d, Cisplatin or 9d+Cisplatin were present. […] The t-test was chosen for being one of the better known parametrical tests.

[1] = day 0 after tumour inoculation, 9d 250 ng
[2] = day 10 after tumour inoculation, 9d 250 ng
[3] = day 13 after tumour inoculation, 9d 250 ng
[4] = day 17 after tumour inoculation, 9d 250 ng
[5] = day 20 after tumour inoculation, 9d 250 ng
[6] = day 24 after tumour inoculation, 9d 250 ng
[7] = day 27 after tumour inoculation, 9d 250 ng
[8] = day 31 after tumour inoculation, 9d 250 ng
[9] = day 34 after tumour inoculation, 9d 250 ng
[10] = day 38 after tumour inoculation, 9d 250 ng

With `N.N.[Cl][Pt][Cl]` [Cisplatin, reference compound] the “Inhibition of the in vivo growth of KLN 205 cell, in words” value (9d 250 ng, Cisplatin 65 μg i.p.) was “inhibit the in vivo growth”, the “Tumour surface, overall values (Mean)” value [1] was 0 mm^2 and the “Tumour surface, overall values (Median)” value [1] was 0 mm^2. The “Tumour volume, overall values (Mean)” value [1] was 0 mm^3, the “Tumour volume, overall values (Median)” value [1] was 0 mm^3 and the “Tumour surface, overall values (Mean)” value [2] was 4.07 mm^2. The “Tumour surface, overall values (Median)” value [2] was 4 mm^2, the “Tumour volume, overall values (Mean)” value [2] was 5.1 mm^3 and the “Tumour volume, overall values (Median)” value [2] was 4 mm^3. For the same compound, the “Tumour surface, overall values (Mean)” value [3] was 14.87 mm^2, the “Tumour surface, overall values (Median)” value [3] was 16 mm^2 and the “Tumour volume, overall values (Mean)” value [3] was 31.77 mm^3. The “Tumour volume, overall values (Median)” value [3] was 32 mm^3, the “Tumour surface, overall values (Mean)” value [4] was 23.93 mm^2 and the “Tumour surface, overall values (Median)” value [4] was 20 mm^2. For the same compound, the “Tumour volume, overall values (Mean)” value [4] was 59.1 mm^3, the “Tumour volume, overall values (Median)” value [4] was 40 mm^3 and the “Tumour surface, overall values (Mean)” value [5] was 39.07 mm^2. The “Tumour surface, overall values (Median)” value [5] was 36 mm^2, the “Tumour volume, overall values (Mean)” value [5] was 119.07 mm^3 and the “Tumour volume, overall values (Median)” value [5] was 108 mm^3. For the same compound, the “Tumour surface, overall values (Mean)” value [6] was 72.2 mm^2, the “Tumour surface, overall values (Median)” value [6] was 72 mm^2 and the “Tumour volume, overall values (Mean)” value [6] was 285.43 mm^3. The “Tumour volume, overall values (Median)” value [6] was 288 mm^3, the “Tumour surface, overall values (Mean)” value [7] was 97.07 mm^2 and the “Tumour surface, overall values (Median)” value [7] was 99 mm^2. For the same compound, the “Tumour volume, overall values (Mean)” value [7] was 445.8 mm^3, the “Tumour volume, overall values (Median)” value [7] was 445.5 mm^3 and the “Tumour surface, overall values (Mean)” value [8] was 124.67 mm^2. The “Tumour surface, overall values (Median)” value [8] was 120 mm^2, the “Tumour volume, overall values (Mean)” value [8] was 637.07 mm^3 and the “Tumour volume, overall values (Median)” value [8] was 600 mm^3. The “Tumour surface, overall values (Mean)” value [9] was 147.93 mm^2, the “Tumour surface, overall values (Median)” value [9] was 150 mm^2 and the “Tumour volume, overall values (Mean)” value [9] was 809.03 mm^3. The “Tumour volume, overall values (Median)” value [9] was 800 mm^3, the “Tumour surface, overall values (Mean)” value [10] was 185.33 mm^2 and the “Tumour surface, overall values (Median)” value [10] was 198 mm^2. The “Tumour volume, overall values (Mean)” value [10] was 1129.9 mm^3, the “Tumour volume, overall values (Median)” value [10] was 1089 mm^3 and the “Differences in KLN 205 tumour growth rate vs. placebo, statistical significance p (t-test)” value (either in surface or volume, all days scored after day 20th) was less than 0.05.
